Source: ChEMBL document CHEMBL1201861, “Genomics of Drug Sensitity in Cancer screening data, Wellcome Trust Sanger Institute”

Key:
Experiment in all cases: cells
Type in all cases: functional, cell-based, Homo sapiens
COLO-800 = conditions: Homo sapiens, COLO-800;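 further: growth inhibition of COLO-800 cells, read out with a cell viability assay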
Description: SANGER: Inhibition of human COLO-800 cell growth in a cell viability assay.

COR-L88 = conditions: Homo sapiens, COR-L88;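 further: growth inhibition of COR-L88 cells, read out with a cell viability assay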
Description: SANGER: Inhibition of human COR-L88 cell growth in a cell viability assay.

D-392MG = conditions: Homo sapiens, D-392MG
DEL = conditions: Homo sapiens, DEL;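 further: growth inhibition of the human DEL cell line, read out with a cell viability assay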
Description: SANGER: Inhibition of human DEL cell growth in a cell viability assay.

DOHH-2 = conditions: Homo sapiens, DOHH-2;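 further: growth inhibition of human DOHH-2 cells, read out with a cell viability assay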
Description: SANGER: Inhibition of human DOHH-2 cell growth in a cell viability assay.

ES5 = conditions: Homo sapiens, ES5;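 further: growth inhibition of human ES5 cells, read out by a cell viability assay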
Description: SANGER: Inhibition of human ES5 cell growth in a cell viability assay.

ES6 = conditions: Homo sapiens, ES6;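 further: growth inhibition of human ES6 cells, read out with a cell viability assay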
Description: SANGER: Inhibition of human ES6 cell growth in a cell viability assay.

ES7 = conditions: Homo sapiens, ES7;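 further: growth inhibition of cultured human ES7 cells, read out as cell viability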
Description: SANGER: Inhibition of human ES7 cell growth in a cell viability assay.

EW-13 = conditions: Homo sapiens, EW-13;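 further: growth inhibition of EW-13 cells, read out with a cell viability assay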
Description: SANGER: Inhibition of human EW-13 cell growth in a cell viability assay.

EOL1 = conditions: Homo sapiens, EOL1;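 further: growth inhibition of EoL-1 cells, read out by a cell viability assay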
Description: SANGER: Inhibition of human EoL-1-cell cell growth in a cell viability assay.

HC-1 = conditions: Homo sapiens, HC-1;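 further: growth inhibition of HC-1 cells measured by a cell viability assay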
Description: SANGER: Inhibition of human HC-1 cell growth in a cell viability assay.

HCC2218 = conditions: Homo sapiens, HCC2218;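 further: cell viability assay read-out, with IC50 given as the concentration that inhibits growth of the cell line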
Description: SANGER: Inhibition of human HCC2218 cell growth in a cell viability assay.

HCE-4 = conditions: Homo sapiens, HCE-4;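 further: cell viability assay measuring inhibition of growth in the human HCE-4 cell line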
Description: SANGER: Inhibition of human HCE-4 cell growth in a cell viability assay.

HDLM-2 = conditions: Homo sapiens, HDLM-2;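 further: cell viability assay measuring suppression of HDLM-2 proliferation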
Description: SANGER: Inhibition of human HDLM-2 cell growth in a cell viability assay.

HL-60 = conditions: Homo sapiens, HL-60;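 further: growth inhibition of human HL-60 cells, read out with a cell viability assay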
Description: SANGER: Inhibition of human HL-60 cell growth in a cell viability assay.

K562 = conditions: Homo sapiens, K562
Description: SANGER: Inhibition of human K-562 cell growth in a cell viability assay.

KS-1 = conditions: Homo sapiens, KS-1;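 further: growth inhibition of KS-1 cells, read out with a cell viability assay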
Description: SANGER: Inhibition of human KS-1 cell growth in a cell viability assay.

LAMA-84 = conditions: Homo sapiens, LAMA-84;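 further: growth inhibition of LAMA-84 cells, read out with a cell viability assay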
Description: SANGER: Inhibition of human LAMA-84 cell growth in a cell viability assay.

LB2518-MEL = conditions: Homo sapiens, LB2518-MEL;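 further: growth inhibition of human LB2518-MEL cells, measured with a cell viability assay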
Description: SANGER: Inhibition of human LB2518-MEL cell growth in a cell viability assay.

LB831-BLC = conditions: Homo sapiens, LB831-BLC;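 further: growth inhibition of LB831-BLC cells, read out with a cell viability assay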
Description: SANGER: Inhibition of human LB831-BLC cell growth in a cell viability assay.

Lu-65 = conditions: Homo sapiens, Lu-65;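 further: growth inhibition of Lu-65 cancer cells, read out by a cell viability assay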
Description: SANGER: Inhibition of human LU-65 cell growth in a cell viability assay.

LXF-289 cell line = conditions: Homo sapiens, LXF-289
Description: SANGER: Inhibition of human LXF-289 cell growth in a cell viability assay.

MLMA = conditions: Homo sapiens, MLMA;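 further: growth inhibition of MLMA cells (human), determined through a cell viability readout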
Description: SANGER: Inhibition of human MLMA cell growth in a cell viability assay.

MN-60 = conditions: Homo sapiens, MN-60;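 further: growth inhibition of the MN-60 cell line, determined with a cell viability assay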
Description: SANGER: Inhibition of human MN-60 cell growth in a cell viability assay.

MZ1-PC = conditions: Homo sapiens, MZ1-PC;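 further: cell viability assay measuring growth inhibition of human MZ1-PC cells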
Description: SANGER: Inhibition of human MZ1-PC cell growth in a cell viability assay.

NB13 = conditions: Homo sapiens, NB13;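 further: cell viability readout measuring growth inhibition of human NB13 cells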
Description: SANGER: Inhibition of human NB13 cell growth in a cell viability assay.

NB17 = conditions: Homo sapiens, NB17;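 further: growth inhibition of NB17 cells, read out with a cell viability assay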
Description: SANGER: Inhibition of human NB17 cell growth in a cell viability assay.

NB6 = conditions: Homo sapiens, NB6;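 further: growth inhibition of NB6 cells, read out by a cell viability assay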
Description: SANGER: Inhibition of human NB6 cell growth in a cell viability assay.

NCI-H1092 = conditions: Homo sapiens, NCI-H1092;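 further: cell growth inhibition measured with a cell viability assay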
Description: SANGER: Inhibition of human NCI-H1092 cell growth in a cell viability assay.

NCI-H1299 = conditions: Homo sapiens, NCI-H1299;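 further: growth inhibition of human NCI-H1299 cells, read out by a cell viability assay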
Description: SANGER: Inhibition of human NCI-H1299 cell growth in a cell viability assay.

NCI-H1395 = conditions: Homo sapiens, NCI-H1395;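 further: cell viability assay read-out quantifying reduced proliferation of human NCI-H1395 cells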
Description: SANGER: Inhibition of human NCI-H1395 cell growth in a cell viability assay.

NCI-H2126 = conditions: Homo sapiens, NCI-H2126;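 further: growth inhibition of the cancer cell line, determined with a cell viability readout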
Description: SANGER: Inhibition of human NCI-H2126 cell growth in a cell viability assay.

NKM-1 = conditions: Homo sapiens, NKM-1;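 further: growth inhibition of NKM-1 cells, read out with a cell viability assay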
Description: SANGER: Inhibition of human NKM-1 cell growth in a cell viability assay.

RKO = conditions: Homo sapiens, RKO;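 further: growth inhibition of human RKO cells, read out with a cell viability assay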
Description: SANGER: Inhibition of human RKO cell growth in a cell viability assay.

SBC-1 = conditions: Homo sapiens, SBC-1;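 further: cell viability assay measuring growth inhibition of the SBC-1 cell line, IC50 being the concentration that halves growth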
Description: SANGER: Inhibition of human SBC-1 cell growth in a cell viability assay.

SCH = conditions: Homo sapiens, SCH;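 further: growth inhibition of human SCH cells, read out in a cell viability assay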
Description: SANGER: Inhibition of human SCH cell growth in a cell viability assay.

SF-126 = conditions: Homo sapiens, SF-126;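 further: growth inhibition of human SF126 cells, read out with a cell viability assay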
Description: SANGER: Inhibition of human SF126 cell growth in a cell viability assay.

SJSA-1 = conditions: Homo sapiens, SJSA-1;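 further: growth inhibition of human SJSA-1 cells, read out through a cell viability measurement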
Description: SANGER: Inhibition of human SJSA-1 cell growth in a cell viability assay.

SK-N-DZ = conditions: Homo sapiens, SK-N-DZ;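 further: growth inhibition of the cancer cell line, read out through a viability assay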
Description: SANGER: Inhibition of human SK-N-DZ cell growth in a cell viability assay.

SK-PN-DW = conditions: Homo sapiens, SK-PN-DW;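 further: growth inhibition measured with a viability assay on these cells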
Description: SANGER: Inhibition of human SK-PN-DW cell growth in a cell viability assay.

SK-UT-1 = conditions: Homo sapiens, SK-UT-1;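 further: growth inhibition of SK-UT-1 cells, measured by a cell viability assay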
Description: SANGER: Inhibition of human SK-UT-1 cell growth in a cell viability assay.

697 = conditions: Homo sapiens
Description: SANGER: Inhibition of human 697 cell growth in a cell viability assay.

A3-KAW = conditions: Homo sapiens, A3-KAW;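 further: growth inhibition of human A3-KAW cells, read out with a cell viability assay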
Description: SANGER: Inhibition of human A3-KAW cell growth in a cell viability assay.

ATN-1 = conditions: Homo sapiens, ATN-1;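 further: growth inhibition of human ATN-1 cells, read out with a cell viability assay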
Description: SANGER: Inhibition of human ATN-1 cell growth in a cell viability assay.

TE-12 = conditions: Homo sapiens, TE-12;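 further: growth inhibition of TE-12 cells, read out by a cell viability assay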
Description: SANGER: Inhibition of human TE-12 cell growth in a cell viability assay.

TE-5 = conditions: Homo sapiens, TE-5;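 further: inhibition of cell growth, read out by a cell viability assay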
Description: SANGER: Inhibition of human TE-5 cell growth in a cell viability assay.

TE-8 = conditions: Homo sapiens, TE-8;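 further: growth inhibition of TE-8 cells, measured with a cell viability readout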
Description: SANGER: Inhibition of human TE-8 cell growth in a cell viability assay.

U-266 = conditions: Homo sapiens, U-266
Description: SANGER: Inhibition of human U-266 cell growth in a cell viability assay.

Cc1cn(-c2cc(NC(=O)c3ccc(C)c(Nc4nccc(-c5cccnc5)n4)c3)cc(C(F)(F)F)c2)cn1 [NILOTINIB]
IC50 (COLO-800): > 2000 nM | IC50 (COR-L88): > 2000 nM | IC50 (D-392MG): > 2000 nM | IC50 (DEL): > 2000 nM | IC50 (DOHH-2): > 2000 nM | IC50 (ES5): > 2000 nM | IC50 (ES6): > 2000 nM | IC50 (ES7): > 2000 nM | IC50 (EW-13): > 2000 nM | IC50 (EOL1): < 7.81 nM | IC50 (HC-1): > 2000 nM | IC50 (HCC2218): > 2000 nM | IC50 (HCE-4): > 2000 nM | IC50 (HDLM-2): > 2000 nM | IC50 (HL-60): > 2000 nM | IC50 (K562): > 2000 nM | IC50 (KS-1): > 2000 nM | IC50 (LAMA-84): 4.9 nM | IC50 (LB2518-MEL): > 2000 nM | IC50 (LB831-BLC): > 2000 nM | IC50 (Lu-65): > 2000 nM | IC50 (LXF-289 cell line): > 2000 nM | IC50 (MLMA): > 2000 nM | IC50 (MN-60): > 2000 nM | IC50 (MZ1-PC): > 2000 nM | IC50 (NB13): > 2000 nM | IC50 (NB17): > 2000 nM | IC50 (NB6): > 2000 nM | IC50 (NCI-H1092): > 2000 nM | IC50 (NCI-H1299): > 2000 nM | IC50 (NCI-H1395): > 2000 nM | IC50 (NCI-H2126): > 2000 nM | IC50 (NKM-1): 901 nM | IC50 (RKO): > 2000 nM | IC50 (SBC-1): > 2000 nM | IC50 (SCH): > 2000 nM | IC50 (SF-126): > 2000 nM | IC50 (SJSA-1): > 2000 nM | IC50 (SK-N-DZ): > 2000 nM | IC50 (SK-PN-DW): > 2000 nM | IC50 (SK-UT-1): > 2000 nM | IC50 697: > 2000 nM | IC50 (A3-KAW): > 2000 nM | IC50 (ATN-1): > 2000 nM | IC50 (TE-12): > 2000 nM | IC50 (TE-5): > 2000 nM | IC50 (TE-8): > 2000 nM | IC50 (U-266): > 2000 nM

CS(=O)(=O)c1ccc(C(=O)Nc2ccc(Cl)c(-c3ccccn3)c2)c(Cl)c1 [VISMODEGIB]
IC50 (COLO-800): > 10000 nM | IC50 (D-392MG): > 10000 nM | IC50 (DEL): > 10000 nM | IC50 (DOHH-2): > 10000 nM | IC50 (ES5): > 10000 nM | IC50 (ES6): > 10000 nM | IC50 (ES7): > 10000 nM | IC50 (EW-13): > 10000 nM | IC50 (HC-1): > 10000 nM | IC50 (HCE-4): > 10000 nM | IC50 (HDLM-2): 8050 nM | IC50 (HL-60): > 10000 nM | IC50 (K562): > 10000 nM | IC50 (KS-1): > 10000 nM | IC50 (LAMA-84): > 10000 nM | IC50 (LB2518-MEL): > 10000 nM | IC50 (LB831-BLC): > 10000 nM | IC50 (Lu-65): > 10000 nM | IC50 (LXF-289 cell line): > 10000 nM | IC50 (MLMA): > 10000 nM | IC50 (MN-60): > 10000 nM | IC50 (MZ1-PC): > 10000 nM | IC50 (NB13): > 10000 nM | IC50 (NB17): > 10000 nM | IC50 (NB6): > 10000 nM | IC50 (NCI-H1092): > 10000 nM | IC50 (NCI-H1299): > 10000 nM | IC50 (NCI-H1395): > 10000 nM | IC50 (NCI-H2126): > 10000 nM | IC50 (NKM-1): > 10000 nM | IC50 (RKO): > 10000 nM | IC50 (SBC-1): > 10000 nM | IC50 (SCH): > 10000 nM | IC50 (SF-126): > 10000 nM | IC50 (SJSA-1): > 10000 nM | IC50 (SK-N-DZ): > 10000 nM | IC50 (SK-PN-DW): > 10000 nM | IC50 (SK-UT-1): > 10000 nM | IC50 697: > 10000 nM | IC50 (A3-KAW): > 10000 nM | IC50 (ATN-1): > 10000 nM | IC50 (TE-12): > 10000 nM | IC50 (TE-5): > 10000 nM | IC50 (TE-8): > 10000 nM | IC50 (U-266): > 10000 nM
